Experimental data taken from US8859291B2, “Methods for target molecule detection using siderophores and related compositions” (PerkinElmer LAS, Inc., priority 2004, dated 2014).

System: deferoxamine-gallium (III) cation capture agent
Test: AlphaScreen proximity assay: binding of biotinylated target molecules to deferoxamine-gallium (III) cation acceptor beads
Procedure: To prepare desferrioxamine complexed with gallium (III) cation and desferrioxamine complexed with iron (III), as a capture agents attached to a plastic bead support, desferrioxamine was first attached to plastic beads as follows: 5 mg of deferoxamine, 250 ul of raw AlphaScreen™ acceptor beads (at 20 mg/ml), 6 ul of TWEEN™ 20 detergent (at 10% in water), 50 ul of sodium cyanoborohydride (at 25 mg/ml in water) and 695 ul of MES 0.1 M, pH 6.0 were mixed. The mixture was incubated overnight at 37° C. in an agitating water bath. The following morning, 50 ul of carboxymethoxylamine (at 65 mg/ml in water, pH 5) was added, and the mixture was incubated for 1 hour at 37° C. The beads were then centrifuged (30 minutes at 13,000 rpm), washed twice with TRIS buffer (0.1 M, pH 8.0).
To form a complex of desferrioxamine with transition metal cations, the beads were resuspended in HEPES buffer (25 mM, pH 7.4) containing 100 mM gallium (III) or iron (III) chloride. After 1 hour of incubation, the beads were centrifuged, washed twice with HEPES buffer (25 mM pH 7.4) and resuspended in HEPES buffer. Sonication optionally can be used to eliminate aggregates of beads. […]
The ability of deferoxamine-gallium (III) cation capture agents to bind to target molecules was confirmed using AlphaScreen™ assays. […] Alternatively, competition or cleavage assays can be read as signal reduction. […]

- concentration at which maximal signal was not yet reached: > 1 µM
- concentration at which detection starts (HEPES buffer, streptavidin donor beads, triplicate): around 300 pM
Substance: biotin-phosphoinositide-3,4,5-trisphosphate [biotin-PIP3]
